Test results reported in patent US20180072988A1, “GENERATION OF FUNCTIONAL CELLS FROM STEM CELLS” (priority 2015, published 2018).
Entries after “also recorded” stand apart in the source; their conditions may differ.

Experiments:
mixed iENs/iGNs = experiment: Spontaneous PSC recording from iGNs in mixed iENs/iGNs co-culture; type: cell-based, human; details: 56 dpt, -70 mV; after bicuculline
Procedure: (§1) Whole cell patch clamp recordings were performed on iGNs and iENs with voltage or current clamp mode. Recording pipettes with resistances of 4-6 MΩ were filled with an internal solution containing (in mM): 120 K-gluconate, 9 KCl, 10 KOH, 3.48 MgCl2, 4 NaCl, 10 HEPES, 4 Na2ATP, 0.4 Na3GTP, 17.5 Sucrose, 0.5 EGTA with an osmolarity of 290 mOsm and pH 7.3. Neurons were bathed in the extracellular solution containing (in mM): 124 NaCl, 3 KCl, 1.3 NaH2PO4, 10 dextrose, 2 MgCl2, 2 CaCl2, 10 HEPES at pH 7.4. Bicuculline (20 μM, Tocris) and CNQX (50 μM, Tocris) were used to block inhibitory or excitatory synaptic responses, respectively. Neurons were held at −70 mV except otherwise indicated or at required currents using an Axon MultiClamp 700B amplifier (Axon Instruments). Signal was sampled at 40 kHz and filtered at 2 kHz (Digidata 1440A, Molecular Devices). Recordings with serial resistance higher than 20 MO or leaking current more than 200 pA were not analyzed. Data were analyzed offline using the ClampFit (Molecular Devices) or MiniAnalysis (Synaptosoft). […] The reversal potential for ions was −49 mV in our recording system, calculated using the simplified Nernst equation: E(Cl^−)=−59*log(extracellular[Cl^−]/intracellular[Cl^−]),(T=25° C.). Spontaneous action potentials were recorded at I=0 mode. […]

[1] = tested on: transplanted human iGNs in acute cortical slices; experiment: Slice recording of sEPSCs from human iGNs transplanted into mouse cortex; type: cell-based; details: CNQX 50 μM; -70 mV voltage clamp
Procedure: P1 NSG pups were anesthetized on ice for 1-2 minutes before being secured with tape onto a prechilled ice block. Human iGNs were priorly labeled with RFP as described, and trypsinized to single cells at 8 dpt. Concentrated cell suspensions (˜2.5-5×10^4 cells/μl) were front loaded into a microliter syringe (26s gauge, Hamilton Company) and injected (200 nl, 250 nl/min) bilaterally to a depth of 0.2 mm near the centre of the anterior/posterior axis and 1 mm away from the midline.
After isofluorane anesthesia, brains were quickly cut out and 300-μm coronal slices were sectioned using vibrating microtome (VF-200 Microtome, Precisionary Instruments). Slices were incubated at 30° C. in artificial cerebrospinal fluid (ACSF) containing (in mM): 125 NaCl, 2.5 KCl, 1.25 NaH2PO4, 2 CaCl2, 1 MgCl2, 26 NaHCO3, and 10 glucose, saturated with 95% 02 and 5% CO2 at 30-32° C. for recovery for at least 1 hour. During recording, slices were kept in a recording chamber with continuous perfusion of ACSF. CNQX (50 μM, Tocris) was used to block sEPSC. Patch recordings were done by using IR-DIC visualization techniques with an Olympus BX51WI upright microscope with a ×60 water-immersion lens. Patch clamp recording method was same with that of recording in cultured cell.

iENs = experiment: sEPSC recording from iENs; type: cell-based, human; details: CNQX 20 μM; 21 dpt
Procedure: as §1, with “Bicuculline (20 μM, Tocris) and CNQX (50 μM, Tocris) were used to block inhibitory or excitatory synaptic responses, respectively.” left out, “(Synaptosoft). Voltage clamp was used for recording I/V curve of Na/K current using a protocol of increasing holding potential 10 mV for each step from −80 mV.” for “(Synaptosoft).”

iGNs = experiment: Whole cell patch clamp of iGNs: GABA-evoked responses and spontaneous IPSCs; type: cell-based, human; details: 1 mM, 100 ms
Procedure: as §1, with “Neurons were held at −70 mV except otherwise indicated or at required currents using an Axon MultiClamp 700B amplifier (Axon Instruments). Signal was sampled at 40 kHz and filtered at 2 kHz (Digidata 1440A, Molecular Devices).” left out
For chemical GABA evoked IPSC recording, tip of glass pipettes filled with freshly made GABA (1 mM, Sigma) was put approximately 100 μm away from soma along dendrites of recorded neurons. […]

iGN expressing ChETA = type: cell-based, human

## N#Cc1cc2[nH]c(=O)c(=O)[nH]c2cc1[N+](=O)[O-] [CNQX]
Mixed iENs/iGNs
  sEPSCs (fast-rise, fast-decay PSCs) in iGNs of mixed culture, block: completely abolished the remaining fast-rise, fast-decay PSCs; also recorded: blocked
[1]
  spontaneous EPSCs (sEPSCs) in transplanted iGNs, block: abolished; also recorded: blocked
iENs
  sEPSCs in iENs, block: completely abolished sEPSCs

## NCCCC(=O)O [GABA, gamma-aminobutyric acid]
iGNs
  induction of IPSCs by exogenous application: triggered inhibitory postsynaptic currents

## TTX
iGN expressing ChETA
  light-evoked inward currents, block: could not block these light-evoked currents
